# “Also recorded” adds a separate entry of the source. Like-named read-outs stand apart in the source and are kept apart here.
# Columns and labels:
# SARS-CoV-2 = type: cell-based, SARS-CoV-2 (nCoV-2019BetaCoV/Wuhan/WIV04/2019 strain)
# EBOV-Zaire type [1] = details: virus titer in supernatant, Vero E6 cell line, read-out: half-inhibitory concentration (IC50); cited from earlier work
# [2] = cited from earlier work
# Vero E6 cells = details: Vero E6, 48 h
# SARS coronavirus = type: in vivo, A129 mice; details: for Death rate: once daily from 4 h to 144 h after challenge, 1*10^6 PFU; for Protection of SARS coronavirus-infected mice from death: intraperitoneal once a day from 4 hours after challenge, 50-200 mg/kg
# EBOV-Zaire type [3] = details: drug concentration of above 62.5 mg/L; cited from earlier work
# Vero C1008 cells = details: high concentration of 1.95 g/L; cited from earlier work
# [4] = 300 mg/kg/d from day 6 to day 13, cited from earlier work
compound,measurement,setting,value
"NC(=O)c1nc(F)cnc1O [Favipiravir, 6-fluoro-3-hydroxypyrazine-2-carboxamide]",Reduction of viral RNA load in the cells,SARS-CoV-2,the inhibitory activity is dose-dependent
same,Inhibition of replication of the SARS-CoV-2 virus genome in the infected supernatant,"SARS-CoV-2; at concentrations of 100 μM, 33 μM, 11.1 μM and 3.7 μM",could effectively inhibit
same,Reduction of viral nucleic acid load in cells infected by SARS-CoV-2,SARS-CoV-2; at micromolar concentration level,can reduce the viral nucleic acid load
same,IC50,EBOV-Zaire type [1],67 µM
same,mice protected from death,"[2]; intragastric 300 mg/kg/d (2 times/d, 150 mg/kg per time) from 1 h after challenge for 14 days",100%
same,body weight of the mice in the administration group,[2]; intragastric 300 mg/kg/d for 14 days,significantly improved
same,Cell viability (% of vehicle control),Vero E6 cells; 0.14 μM,101.61 ± 0.74 % of vehicle control
same,Cell viability (% of vehicle control),Vero E6 cells; 0.41 μM,101.38 ± 3.85 % of vehicle control
same,Cell viability (% of vehicle control),Vero E6 cells; 1.23 μM,98.57 ± 1.90 % of vehicle control
same,Cell viability (% of vehicle control),Vero E6 cells; 3.70 μM,99.09 ± 4.91 % of vehicle control
same,Cell viability (% of vehicle control),Vero E6 cells; 11.11 μM,96.42 ± 4.77 % of vehicle control
same,Cell viability (% of vehicle control),Vero E6 cells; 33.33 μM,95.21 ± 4.43 % of vehicle control
same,Cell viability (% of vehicle control),Vero E6 cells; 100 μM,96.37 ± 1.26 % of vehicle control
same,Death rate,SARS coronavirus; 50 mg/kg intraperitoneal,100%
same,Death rate,SARS coronavirus; 100 mg/kg intraperitoneal,50%
same,Death rate,SARS coronavirus; 200 mg/kg intraperitoneal,0%
same,Protection of SARS coronavirus-infected mice from death,SARS coronavirus,can effectively protect mice; also recorded: the survival rate is dose-dependent
same,Protection of SARS coronavirus-infected mice from death,SARS coronavirus; listed as compound represented by Formula I,significant protective effect
same,Inhibition of cytopathic effect (CPE) of EBOV-Zaire type,EBOV-Zaire type [3],completely inhibit
same,Cytotoxicity to Vero C1008 cells,Vero C1008 cells,not cytotoxic
same,protection rate,[4]; challenge dose of 100% death of placebo group,100%
same,"body weight, glutamic-pyruvic transaminase, glutamic-oxalic transaminase, viremia",[4],improved significantly

# — patent US11318135B2 (priority 2020, dated 2022)
